{"source": "patent US20110117169A1", "about": "“METHODS AND COMPOSITIONS FOR CAPTURE OF CELLS” (AFFINERGY, INC., priority 2009, published 2011)", "key": {"[1]": {"tested_on": "hMSCs", "assay": "Binding of peptide-modified collagen to hMSCs, FACS with Neutravidin-PE", "set-up": "species or system human", "conditions": "20,000 hMSCs, 1 hr on ice, serial dilution from 25 μM", "procedure": "In a separate experiment, cell binding peptide SEQ ID NO: 4 was covalently attached to collagen as described herein and tested for its ability to bind hMSCs using an experimental setup similar to that described above. Briefly, collagen with covalently attached SEQ ID NO: 4 peptide was serial diluted (starting from 25 μM) and mixed with 20,000 hMSCs in 2% FBS/PBS. After 1 hr incubation on ice, cells were washed twice with 2% FBS/PBS and cells bound to the collagen with covalently attached SEQ ID NO: 4 peptide were detected with Neutravidin-PE. Cells were washed, transferred into 96-well plates for FACS analysis."}, "[2]": {"tested_on": "hMSCs", "assay": "Adherence of hMSCs to polypropylene in presence of peptide-modified collagen", "format": "cell-based, human", "conditions": "after binding in presence of the collagen"}, "[3]": {"tested_on": "HUVECs", "assay": "HUVEC capture and retention on plates coated with peptide-modified collagen ([…]-GLO)", "format": "cell-based, human", "procedure": "After washing, 10,000 HUVECs were added per well in serum free medium for 30 min at 37° C. The plates were washed 3 times with PBS containing 2% FBS, and captured cells were detected with […]-GLO (INVITROGEN) using a luminometer and a standard curve. […] For FIG. 21B, the collagen was extracted in gel loading buffer, separated by PAGE, and total protein was stained with SIMPLYBLUE (INVITROGEN). […] Plates with captured HUVECs were prepared as described in FIG. 20A. […]"}, "[4]": {"tested_on": "ECFCs", "assay": "Capture of ECFCs in flow on coated coverslips (parallel plate flow chamber)", "format": "cell-based, human", "conditions": "2×10^6 ECFC circulated 2 h at 37° C.", "procedure": "The ability of the collagen modified with endothelial cell binding peptide SEQ ID NO: 4 to capture ECFCs in flow was analyzed as follows. Glass coverslips were coated with unmodified collagen or cell binding peptide modified-collagen and mounted in a polycarbonate parallel plate flow chamber. PBS/10% FBS was circulated through a closed 150 ml system to block the coverslips. Approximately 2×10^6 ECFC were injected into the system and were circulated for 2 h at 37° C. Coverslips were washed in PBS to remove loosely adhering cells, the remaining cells on the coverslips were lysed in CELLTITERGLO (INVITROGEN, CA), and the cells enumerated by luminescence against a standard curve."}, "[5]": {"tested_on": "HUVECs", "assay": "Retention of HUVECs under shear stress on coated coverslips", "format": "cell-based, human", "procedure": "The ability of the collagen modified with endothelial cell binding peptide SEQ ID NO: 4 to retain HUVECs under shear stress was analyzed as follows. Glass cover-slips were coated with peptide conjugated collagen or unmodified collagen and seeded with HUVECs. Coverslips were secured in a polycarbonate slide with six 1 cm diameter wells enabling simultaneous testing of materials. A closed loop peristaltic pump was used to expose the samples to flow conditions for 30 minutes at laminar flow rates up to 12 dynes/cm^2 in PBS containing 2% FBS. The number of cells retained on the cover slip was determined using […]-GLO (INVITORGEN) and a luminometer."}, "[6]": {"tested_on": "human dermal fibroblasts", "assay": "Fibroblast binding to peptide-modified collagen coated plates", "format": "cell-based", "conditions": "for fibroblast binding compared to unmodified collagen: higher concentrations / FIG. 28 summary", "procedure": "The experiment was performed according to the following procedure. Cell-binding peptide (SEQ ID NO: 4) was covalently attached to soluble collagen as described herein at Example 7. 96-well plates were coated with various amounts of unmodified or the peptide-modified collagen (177 μmol peptide/g collagen) over night at 4° C. Unbound collagen was removed and the plates were blocked for 1 h. After washing, 5,000 human dermal fibroblasts were added per well in serum-free medium for 30 min at 37° C. The plates were washed, and bound cells were detected with […]-GLO (PROMEGA) using a luminometer. At 0.0025 μg collagen, fibroblast binding was increased 11-fold for the peptide-modified collagen compared to unmodified collagen (see FIG. 28)."}, "[7]": {"tested_on": "hMSCs", "assay": "hMSC attachment to PEEK discs in collagen solution ([…]-GLO)", "format": "cell-based, human", "conditions": "2 h at 37° C., highest concentration of collagen", "procedure": "To test whether collagen having a covalently attached cell binding peptide could increase cell adhesion to PEEK discs, PEEK discs were coated with collagen and hMSC attachment was measured. Industrial-grade PEEK discs were obtained from […] POLYMERS, Inc Houston, Tex. The discs were machined with a steel punch for a 0.5 cm diameter (thickness of 0.125). Discs (n=2 per group) were coated by two methods. In the first method, the discs were incubated overnight with varying concentrations of cell binding peptide SEQ ID NO: 4-modified collagen (88.5 μmol peptide/g of collagen). The discs were washed to remove unattached peptide and collagen, and the attached biotinylated peptide was detected with Neutravidin-HRP in an ELISA assay. […] In the second method, uncoated PEEK discs were placed in a solution of unmodified or peptide-modified collagen and hMSCs. After 2 h at 37° C., discs were moved to a new plate and washed with PBS to remove unbound cells. The number of attached cells was counted by […]-GLO. […] On the other hand, peptide-conjugated collagen increased cell attachment relative to both uncoated and collagen-coated PEEK. At the highest concentration of peptide-modified collagen, 26% of the cells were attached, whereas only 9% of cells attached to the uncoated discs and 11% to the discs coated with unmodified collagen."}}, "note": "Ends that are not written are not given here. spacer = not defined here", "data": [{"substance": "peptide-modified collagen: SEQ ID NO: 4 with spacer and lysine covalently attached to soluble bovine type I collagen via BS^3 crosslinking reagent (SSFWDVCQGDGTCYGGGSR-{spacer-Lys}; cysteine pairing not given here; reading uncertain; also: covalently attached to soluble bovine type I collagen via BS3 crosslinker, spacer not given here)", "values": [{"measurement": "increase in fluorescence signal compared to control", "setting": "[1]", "value": "~100", "unit": "fold"}, {"measurement": "hMSCs retained on the walls of polypropylene plates", "setting": "[2]", "value": "~80", "unit": "%"}, {"measurement": "HUVECs retained compared to unmodified collagen after agitation", "setting": "[3]; 1 hour with agitation in PBS containing 2% FBS", "value": 7, "unit": "fold"}, {"measurement": "increase in HUVEC retention over unmodified collagen", "setting": "[3]; 10,000 HUVECs per well, serum free medium, 30 min at 37° C.", "value": 3, "unit": "fold"}, {"measurement": "ECFCs captured in flow compared to unmodified collagen", "setting": "[4]", "value": "about 20 fold"}, {"measurement": "effect of shear stress on cell capture", "setting": "[5]; 30 minutes, laminar flow up to 12 dynes/cm^2", "value": "did not significantly affect cell capture"}, {"measurement": "HUVECs captured compared to unmodified collagen", "setting": "[5]; coated glass cover-slips, PBS containing 2% FBS", "value": "about 3 fold"}, {"measurement": "increase in fibroblast binding compared to unmodified collagen", "setting": "[6]; 0.0025 μg collagen, 5,000 fibroblasts per well, 30 min at 37° C.", "value": 11, "unit": "fold"}, {"measurement": "fibroblast binding compared to unmodified collagen", "setting": "[6]; listed as SEQ ID NO: 4 peptide-modified collagen", "value": "Increased cell binding"}, {"measurement": "fibroblast binding compared to unmodified collagen", "setting": "[6]; listed as cell binding peptide (SEQ ID NO: 4)-modified collagen", "value": "enhanced binding"}, {"measurement": "cells attached to PEEK discs", "setting": "[7]", "value": 26, "unit": "%"}]}]}
